Entries after “also recorded” stand apart in the source; their conditions may differ.
What was measured:
ST3N = molecular target: T1, ST3N (Rattus norvegicus, UniProt Q02734); test: Acceptor specificity of ST3N (Table 4)
T1 sequence (Q02734 29-374 limits assumed): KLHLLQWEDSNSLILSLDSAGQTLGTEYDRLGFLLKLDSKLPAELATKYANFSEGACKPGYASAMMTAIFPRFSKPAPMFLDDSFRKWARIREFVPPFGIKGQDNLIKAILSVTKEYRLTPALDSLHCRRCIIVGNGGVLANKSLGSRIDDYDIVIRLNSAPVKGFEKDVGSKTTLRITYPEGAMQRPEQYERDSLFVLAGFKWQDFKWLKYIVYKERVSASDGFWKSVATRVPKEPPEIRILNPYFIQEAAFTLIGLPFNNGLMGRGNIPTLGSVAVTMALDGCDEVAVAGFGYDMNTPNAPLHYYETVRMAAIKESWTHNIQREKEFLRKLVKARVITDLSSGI

ST3O = molecular target: T2, ST3O (Sus scrofa, UniProt Q02745); test: Acceptor specificity of ST3O (Table 4); conditions: for Relative rate (%) ST30: acceptor 0.2 mM
T2 sequence (Q02745 28-343 limits assumed): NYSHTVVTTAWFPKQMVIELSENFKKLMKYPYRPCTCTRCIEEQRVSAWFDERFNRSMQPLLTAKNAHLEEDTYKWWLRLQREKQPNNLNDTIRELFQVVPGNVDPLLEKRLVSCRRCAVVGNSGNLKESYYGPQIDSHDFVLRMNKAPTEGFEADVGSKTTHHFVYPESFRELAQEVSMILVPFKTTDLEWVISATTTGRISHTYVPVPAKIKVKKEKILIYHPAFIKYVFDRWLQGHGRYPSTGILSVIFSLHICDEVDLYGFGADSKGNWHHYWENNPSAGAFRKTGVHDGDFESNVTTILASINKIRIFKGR

ST3 = molecular target: T3, ST3 (Homo sapiens, UniProt Q11206); test: Acceptor specificity of soluble ST3 (AZ3, concentrated COS-1 media); type: biochemical; conditions: for Relative rate (%) ST3: acceptor 0.2 mM
T3 construct: A truncated form of ST3, lacking the first 39 amino acids of the long-form open reading frame; made in house; host or cells: COS-1 (concentrated culture medium)
T3 sequence (Q11206 41-333): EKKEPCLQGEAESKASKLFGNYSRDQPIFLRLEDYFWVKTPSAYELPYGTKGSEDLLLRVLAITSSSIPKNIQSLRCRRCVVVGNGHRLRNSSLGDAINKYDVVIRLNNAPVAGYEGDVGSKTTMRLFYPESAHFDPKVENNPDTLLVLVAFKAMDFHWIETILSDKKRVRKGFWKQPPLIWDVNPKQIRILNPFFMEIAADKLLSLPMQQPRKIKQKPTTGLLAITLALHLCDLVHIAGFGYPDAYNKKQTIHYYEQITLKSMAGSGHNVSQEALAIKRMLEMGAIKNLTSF

Compound | Relative rate (%) ST3N (ST3N; acceptor 0.2 mM) [%] | Relative rate (%) ST3N (ST3N; acceptor 2.0 mM) [%] | Relative rate (%) ST30 (ST3O) [%] | acceptor substrate for ST3 enzyme (in words) (ST3) | Relative rate (%) ST3 (ST3) [%] | acceptor substrate for ST30 enzyme (in words) (ST3O)
CC(=O)N[C@H]1[C@H](O[C@H]2[C@@H](O)[C@@H](CO)O[C@@H](O[C@H]3[C@H](O)[C@@H](O)C(O)O[C@@H]3CO)[C@@H]2O)O[C@H](CO)[C@@H](O[C@@H]2O[C@@H](C)[C@@H](O)[C@@H](O)[C@@H]2O)[C@@H]1O[C@@H]1O[C@H](CO)[C@H](O)[C@H](O)[C@H]1O (stereo partly shown) [Galβ1,3(Fucα1,4)GlcNAcβ1,3Galβ1,4Glc] | 0 | 0 | 0 |  |  | 
CC(=O)N[C@H]1C(O)O[C@H](CO)[C@H](O)[C@@H]1O[C@@H]1O[C@H](CO)[C@H](O)[C@H](O)[C@H]1O (stereo partly shown) [Galβ1,3GalNAc] | 3 | 10 | 100 |  |  | 
CC(=O)N[C@H]1[C@H](O[C@H]2[C@@H](O)[C@@H](CO)O[C@@H](O[C@H]3[C@H](O)[C@@H](O)C(O)O[C@@H]3CO)[C@@H]2O)O[C@H](CO)[C@@H](O[C@@H]2O[C@H](CO)[C@H](O)[C@H](O)[C@H]2O)[C@@H]1O[C@@H]1O[C@@H](C)[C@@H](O)[C@@H](O)[C@@H]1O (stereo partly shown) [Galβ1,4(Fucα1,3)GlcNAcβ1,3Galβ1,4Glc] | 0 | 0 | 0 |  |  | 
Asialofetuin: glycoprotein acceptor (Galβ1,3GalNAc-Thr/Ser and Galβ1,4GlcNAc-R) | 18 |  | 26 | sialic acid was incorporated; also recorded: best acceptor |  | 
GalNAcβ1,4(NeuAcα2-3)Galβ1,4Glcβ1-Cer | 0 |  | 0.3 |  | 1 | 
GalNAcβ1,4Galβ1,4Glcβ1-Cer [GalNAcβ1,4Galβ1,4Glcβ1-Cer (Asialo-GM2)] | 0 |  | 0.5 |  |  | 
Galβ1,3GalNAcβ1,4(NeuAcα2-3)Galβ1,4Glcβ1-Cer | 0 |  | 47 | also serving as substrates, but to a lesser extent |  | well
Galβ1,3GalNAcβ1,4Galβ1,4Glcβ1-Cer | 8 |  | 88 | preferred one | 64 | well
Galβ1,4GlcNAcβ1,3Galβ1,4Glcβ1-Cer [Galβ1,4GlcNAcβ1,3Galβ1,4Glcβ1-Cer (nLc4)] |  |  |  | also serving as substrates, but to a lesser extent |  | 
Galβ1,4Glcβ1-Cer [Galβ1,4Glcβ1-Cer (LacCer)] | 0 |  | 0.1 | low but significant level incorporation |  | 
NeuAcα2,3Galβ1,4Glcβ1-Cer [NeuAcα2,3Galβ1,4Glcβ1-Cer (GM3)] | 0 |  | 0.1 |  |  | 
intact fetuin: glycoprotein examined as acceptor |  |  |  | not any significant amount of sialic acid incorporated |  | 
α1 -acid glycoprotein: intact glycoprotein examined as acceptor |  |  |  | not any significant amount of sialic acid incorporated |  | 
